From US8940723B2, “Combination of a pyrroloquinoline compound and a beta-lactam antimicrobial agent, mupirocin or chlorhexidine” (Helperby Therapeutics Limited, priority 2010, dated 2015)
In brackets after ≈: the same amount, converted by molar mass. Entries after “also recorded” stand apart in the source; their conditions may differ. Like-named read-outs stand apart in the source and are kept apart here.

Columns and labels:
[1] = test system: Staphylococcus aureus (Oxford); assay: Minimum inhibitory concentration (MIC), broth dilution method; type: cell-based; settings: S. aureus (Oxford), Iso-Sensitest broth, overnight incubation at 37° C.
Procedure: Staphylococcus aureus (Oxford); Gram positive; Reference strain.
Iso-Sensitest Broth (Oxoid) was used for evaluation of Minimum inhibitory concentrations (MICs), susceptibility tests for antimicrobials, and efficacy of antimicrobial combinations.
The stock solution of each drug was diluted to required concentrations. 10 μl of drug from each dilution was taken and mixed with 290 μl of culture with 10^6 of bacterial cells on a 96-well plate to make the final required concentrations (μg/ml).
The plates were read at 405 nm using a 96-well plate reader Elx 800 equipped with a 405-nm filter (Bio-Tek) before and after incubation. The MIC values of the drugs were determined by comparison of the optical density reading between prior and post drug treatment.

[2] = test system: Staphylococcus aureus (Oxford); assay: Minimum bactericidal concentration (MBC), subculture on drug-free TSA plates; type: cell-based; settings: S. aureus (Oxford), subculture on TSA 24 to 48 hours at 37° C.
Procedure: Minimum bactericidal concentration (MBC) was determined by subculturing 100 μl of dilutions from the 96-well plate on fresh drug-free TSA agar plates and incubating further for 24 to 48 hours at 37° C.

[3] = test system: log phase S. aureus (Oxford strain); assay: Time-kill curve suspension assay, CFU counts, log phase; type: cell-based, Staphylococcus aureus
Procedure: For CFU counting, the bacterial suspensions were diluted using sterile deionized water or phosphate-buffered saline (PBS, Sigma Aldrich Ltd, Poole, Dorset, UK). 100 μl of 10-fold serial dilutions of bacteria culture were plated on one third of TSA plates in triplicate and incubated 24 to 48 hours at 37° C. The number of cells presented on the plates was counted using an AcoLyte colony counter (Synbiosis) and results were expressed as Colony Forming Units/ml (CFU/ml). […] (b) mupirocin; and (c) chlorhexidine gluconate against S. aureus, in a concentration range from below to above the MIC, was assessed in a suspension assay by the time-kill curve method. […] The wells were then inoculated with 280 μl of S. aureus (Oxford strain) suspension containing 10^7 CFU/ml of inocula. Drug free controls were also included. The microtitre plates were incubated at 37° C. for 16 to 24 hours, read in a 96-well plate reader, then samples were diluted and 100 μl of each dilution was plated out on TSA plates. After 24 to 48 hours incubation CFU was counted. Each test was performed in triplicate and repeated twice. […] The wells were then inoculated with 280 μl of S. aureus (Oxford strain) suspension containing 10^7 CFU/ml of inocula. Drug free controls were also included. The microtitre plates were incubated at 37° C. for 16 to 24 hours, read in a 96-well plate reader, then samples were diluted and 100 μl of each dilution was plated out on TSA plates. After 24 to 48 hours incubation CFU was counted. […] Each test was performed in triplicate and repeated twice. […] The wells were then inoculated with 280 μl of S. aureus (Oxford strain) suspensions containing 10^7 or 10^8 and CFU/ml of inocula. Drug free controls were also included. The microtitre plates were incubated at 37° C. for 16 to 24 hours, read in a 96-well plate reader, then samples were diluted and 100 μl of each dilution was plated out on TSA plates. After 24 to 48 hours incubation CFU was counted. Each test was performed in triplicate and repeated twice. […] The mean bacterial colony count at varying time points was compared by the two-tailed t-test with unequal variance. P values of ≦0.05 indicated significant difference.

[4] = test system: clinically latent microorganisms; assay: Screening for ability to kill clinically latent microorganisms (method of WO2000028074); type: cell-based
Source text: International Patent Application, Publication Number WO2000028074 describes a method of screening compounds to determine their ability to kill clinically latent microorganisms. […] This observation has necessitated the development of novel antimicrobials which may be used to kill clinically latent microorganisms.
By way of example, WO2000028074 describes a suitable method of screening compounds to determine their ability to kill clinically latent microorganisms. A typical method may include the following steps: • (1) growing a bacterial culture to stationary phase; • (2) treating the stationary phase culture with one or more antimicrobial agents at a concentration and or time sufficient to kill growing bacteria, thereby selecting a phenotypically resistant sub-population; • (3) incubating a sample of the phenotypically resistant subpopulation with one or more test compounds or agents; and • (4) assessing any antimicrobial effects against the phenotypically resistant subpopulation.
According to this method, the phenotypically resistant sub-population may be seen as representative of clinically latent bacteria which remain metabolically active in vivo and which can result in relapse or onset of disease.

[5] = Staphylococcus aureus, read-out: MIC
[6] = Staphylococcus aureus, read-out: MBC

| SMILES | MIC [1, 5] [µg/mL] | MBC [2, 6] [µg/mL] | activity against clinically latent microorganisms [4] | also measured |
| --- | --- | --- | --- | --- |
| Cc1nc2ccc(Oc3ccccc3)cc2c2c1CCN2CCc1ccccc1 [4-methyl-8-phenoxy-1-(2-phenylethyl)-2,3-dihydro-1H-pyrrolo[3,2-c]quinoline] | 8 | 16 (≈ 42.1 µM) | – | activity against log phase S. aureus ([3]; agent alone at 4 μg/ml): no activities; also recorded: no activity; kind of activity against log phase S. aureus ([3]; pyrroloquinoline alone at 10 and 8 μg/ml): bactericidal activity; CFU/ml reduced from 10^7 to ([3]; pyrroloquinoline alone at 10 and 8 μg/ml, at 72 hours): zero |
| N=C(NCCCCCCNC(=N)NC(=N)Nc1ccc(Cl)cc1)NC(=N)Nc1ccc(Cl)cc1.O=C(O)[C@H](O)[C@@H](O)[C@H](O)[C@H](O)CO.O=C(O)[C@H](O)[C@@H](O)[C@H](O)[C@H](O)CO [Chlorhexidine gluconate] | – | – | – | MIC [1]: 0.5 µg/mL; MBC [2]: 2 µg/mL |
| C/C(=C\C(=O)OCCCCCCCCC(=O)O)C[C@@H]1OC[C@H](C[C@@H]2O[C@H]2[C@@H](C)[C@H](C)O)[C@@H](O)[C@H]1O [Mupirocin] | 0.125 | 256 (≈ 511 µM) | little or no activity | kind of activity against log phase S. aureus ([3]; mupirocin alone at 40, 20 and 10 μg/ml): bacteriostatic |
| CC[C@H]1OC(=O)[C@H](C)[C@@H](O[C@H]2C[C@@](C)(OC)[C@@H](O)[C@H](C)O2)[C@H](C)[C@@H](O[C@@H]2O[C@H](C)C[C@H](N(C)C)[C@H]2O)[C@](C)(O)C[C@@H](C)CN(C)[C@H](C)[C@@H](O)[C@]1(C)O [azithromycin] | – | – | little or no activity | – |
| CC(=O)NC[C@H]1CN(c2ccc(N3CCOCC3)c(F)c2)C(=O)O1 [linezolid] | – | – | little or no activity | – |
